Experimental data as given in ChEMBL document CHEMBL3352346, “Optimization of sphingosine-1-phosphate-1 receptor agonists: effects of acidic, basic, and zwitterionic chemotypes on pharmacokinetic and pharmacodynamic profiles” (J Med Chem, 2014).
Values after ≈ are worked out from the molar mass of the structure shown. Active and inactive are the calls of the source. The rule behind the calls is not given here.

What was measured:
[1] = Chromatographic hydrophobicity index, log D of the compound at pH 2; assay type: physicochemical; conditions: buffer
[2] = system: Rattus norvegicus; assay: Reduction of lymphocyte count in rat at 3 mg/kg, po measured at 8 hrs relative to control; assay type: functional
[3] = Oral bioavailability in CD rat at 3 mg/kg using Methylcellulose(aq), 1% (w/v) suspension; assay type: ADME, organism-based; conditions: CD, in vivo
[4] = system: Rattus norvegicus; assay: Reduction of lymphocyte count in rat at 3 mg/kg, po measured at 12 hrs relative to control; assay type: functional
[5] = biological target: Sphingosine 1-phosphate receptor 3 (Homo sapiens, UniProt Q99500); assay: Agonist activity at human S1P3R expressed in RBL membranes assessed as [35S]GTPgammaS binding after 30 mins; assay type: functional, cell membranes
[6] = Clearance in CD rat at 1 mg/kg, iv or 3 mg/kg, po using DMSO/10%(w/v) Kleptose, 0.9% saline(aq) (2%/98%); assay type: ADME, organism-based; conditions: in vivo
[7] = Chromatographic hydrophobicity index, log D of the compound at pH 10.5; assay type: physicochemical; conditions: buffer
[8] = system: Rattus norvegicus; assay: Reduction of lymphocyte count in rat at 3 mg/kg, po measured at 24 hrs relative to control; assay type: functional
[9] = system: Rattus norvegicus; assay: Reduction of lymphocyte count in rat at 3 mg/kg, po measured at 4 hrs relative to control; assay type: functional
[10] = Half life in CD rat at 1 mg/kg, iv or 3 mg/kg, po using DMSO/10%(w/v) Kleptose, 0.9% saline(aq) (2%/98%); assay type: ADME, organism-based; conditions: in vivo
[11] = biological target: Sphingosine 1-phosphate receptor 1 (Homo sapiens, UniProt P21453); assay: Agonist activity at human S1P1R expressed in RH7777 membranes assessed as [35S]GTPgammaS binding after 30 mins; assay type: functional, cell membranes
[12] = Chromatographic hydrophobicity index, log D of the compound at pH 7.4; assay type: physicochemical; conditions: buffer
[13] = Volume of distribution at steady state in CD rat at 1 mg/kg, iv or 3 mg/kg, po using DMSO/10%(w/v) Kleptose, 0.9% saline(aq) (2%/98%); assay type: ADME, organism-based; conditions: in vivo, read-out: Vdss
[14] = Oral bioavailability in C57BL/6 mouse at 3 mg/kg using DMSO/1% methylcellulose 1:99 (w/v); assay type: ADME, organism-based; conditions: in vivo
[15] = system: Mus musculus; assay: Volume of distribution at steady state in po dosed C57BL/6 mouse at 1 mg/kg, iv using DMSO/1% methylcellulose 1:99 (w/v); assay type: ADME, organism-based; parameters: dose 1 mg/kg, route oral; conditions: in vivo
[16] = Half life in po dosed C57BL/6 mouse at 1 mg/kg, iv using DMSO/1% methylcellulose 1:99 (w/v); assay type: ADME, organism-based; parameters: dose 1 mg/kg, route oral; conditions: in vivo
[17] = biological target: Cytochrome P450 2C9 (Homo sapiens, UniProt P11712); assay: Inhibition of CYP2C9 (unknown origin); assay type: ADME
[18] = Inhibition of CYP3A4VR (unknown origin); assay type: ADME, Homo sapiens
[19] = Fraction unbound in human blood; assay type: ADME, tissue-based
[20] = system: Hepatocyte; assay: Intrinsic clearance in rat hepatocyte; assay type: ADME, cell-based; conditions: hepatocytes
[21] = biological target: Cytochrome P450 2D6 (Homo sapiens, UniProt P10635); assay: Inhibition of CYP2D6 (unknown origin); assay type: ADME
[22] = Fraction unbound in rat blood; assay type: ADME, tissue-based
[23] = system: Canis familiaris; assay: (§1) Half life in Beagle dog at 1 mg/kg, iv or 2 mg/kg, po using DMSO/10%(w/v) Kleptose, 0.9% saline(aq) (2%/98%); assay type: ADME, organism-based, Canis lupus familiaris; conditions: in vivo
[24] = Intrinsic clearance in dog hepatocyte; assay type: ADME, cell-based, Canis lupus familiaris; conditions: hepatocytes
[25] = biological target: Cytochrome P450 2C19 (Homo sapiens, UniProt P33261); assay: Inhibition of CYP2C19 (unknown origin); assay type: ADME
[26] = biological target: T1, Cytochrome P450 1A2 (Homo sapiens, UniProt P05177); assay: Inhibition of CYP1A2 (unknown origin); assay type: ADME
T1 sequence (P05177 whole entry): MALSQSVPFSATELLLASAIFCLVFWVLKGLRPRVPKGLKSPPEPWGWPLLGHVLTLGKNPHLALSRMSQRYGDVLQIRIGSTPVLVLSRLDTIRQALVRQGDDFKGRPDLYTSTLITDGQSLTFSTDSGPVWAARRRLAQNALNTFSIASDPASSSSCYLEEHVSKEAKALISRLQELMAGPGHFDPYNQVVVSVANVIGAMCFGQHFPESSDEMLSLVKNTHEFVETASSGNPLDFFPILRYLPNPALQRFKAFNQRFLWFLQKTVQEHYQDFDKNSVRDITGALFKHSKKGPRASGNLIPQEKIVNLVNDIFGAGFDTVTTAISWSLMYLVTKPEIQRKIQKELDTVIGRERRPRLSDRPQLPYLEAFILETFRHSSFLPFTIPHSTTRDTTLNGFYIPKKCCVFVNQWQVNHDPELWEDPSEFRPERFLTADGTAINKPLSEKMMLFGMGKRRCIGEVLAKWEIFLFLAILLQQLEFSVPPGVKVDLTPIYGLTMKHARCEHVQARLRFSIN

[27] = system: Rattus norvegicus; assay: Reduction in lymphocyte level in po dosed male Lewis rat; assay type: functional, organism-based; conditions: Rattus norvegicus, Lewis
[28] = Fraction unbound in dog blood; assay type: ADME, tissue-based, Canis lupus familiaris
[29] = Volume of distribution at steady state in Beagle dog at 1 mg/kg, iv or 2 mg/kg, po using DMSO/10%(w/v) Kleptose, 0.9% saline(aq) (2%/98%); assay type: ADME, organism-based, Canis lupus familiaris; conditions: beagle, in vivo, read-out: Vdss
[30] = system: Rattus norvegicus; assay: Reduction of lymphocyte count in rat at 1 mg/kg, po measured at 2 to 12 hrs relative to control; assay type: functional
[31] = Oral bioavailability in Beagle dog at 2 mg/kg using Methylcellulose(aq), 1% (w/v) suspension; assay type: ADME, organism-based, Canis lupus familiaris; conditions: beagle, in vivo
[32] = Inhibition of CYP3A4VG (unknown origin); assay type: ADME, Homo sapiens
[33] = Dissociation constant, pKa of the compound; assay type: physicochemical
[34] = biological target: Albumin (Homo sapiens, UniProt P02768); assay: Fraction unbound as a percentage in human serum albumin; assay type: ADME
[35] = as §1; assay type: ADME, organism-based, Canis lupus familiaris; conditions: beagle, in vivo
[36] = Solubility in fed-state simulated intestinal fluid at pH 5 after 24 hrs; assay type: ADME
[37] = system: Rattus norvegicus; assay: Reduction of lymphocyte count in rat at 0.3 to 3 mg/kg, po measured relative to control; assay type: functional, organism-based
[38] = Clearance in Beagle dog at 1 mg/kg, iv or 2 mg/kg, po using DMSO/10%(w/v) Kleptose, 0.9% saline(aq) (2%/98%); assay type: ADME, organism-based, Canis lupus familiaris; conditions: in vivo
[39] = Solubility in fed-state simulated intestinal fluid at pH 6.5 after 24 hrs; assay type: ADME
[40] = Permeability in MDCK cells; assay type: ADME, cell-based, Canis lupus familiaris; conditions: dog, read-out: permeability
[41] = Solubility in simulated gastric fluid; assay type: ADME
[42] = Oral bioavailability in cynomolgus monkey at 3 mg/kg using Methylcellulose(aq), 1% (w/v) suspension; assay type: ADME, organism-based, Macaca fascicularis; conditions: in vivo
[43] = Volume of distribution at steady state in cynomolgus monkey at 1 mg/kg, iv or 3 mg/kg, po using DMSO/10%(w/v) Kleptose, 0.9% saline(aq) (2%/98%); assay type: ADME, organism-based, Macaca fascicularis; conditions: in vivo, read-out: Vdss
[44] = Half life in cynomolgus monkey at 1 mg/kg, iv or 3 mg/kg, po using DMSO/10%(w/v) Kleptose, 0.9% saline(aq) (2%/98%); assay type: ADME, organism-based, Macaca fascicularis; conditions: in vivo
[45] = Clearance in cynomolgus monkey at 1 mg/kg, iv or 3 mg/kg, po using DMSO/10%(w/v) Kleptose, 0.9% saline(aq) (2%/98%); assay type: ADME, organism-based, Macaca fascicularis; conditions: in vivo

Chain of Cytochrome P450 2C19 (P33261 whole entry): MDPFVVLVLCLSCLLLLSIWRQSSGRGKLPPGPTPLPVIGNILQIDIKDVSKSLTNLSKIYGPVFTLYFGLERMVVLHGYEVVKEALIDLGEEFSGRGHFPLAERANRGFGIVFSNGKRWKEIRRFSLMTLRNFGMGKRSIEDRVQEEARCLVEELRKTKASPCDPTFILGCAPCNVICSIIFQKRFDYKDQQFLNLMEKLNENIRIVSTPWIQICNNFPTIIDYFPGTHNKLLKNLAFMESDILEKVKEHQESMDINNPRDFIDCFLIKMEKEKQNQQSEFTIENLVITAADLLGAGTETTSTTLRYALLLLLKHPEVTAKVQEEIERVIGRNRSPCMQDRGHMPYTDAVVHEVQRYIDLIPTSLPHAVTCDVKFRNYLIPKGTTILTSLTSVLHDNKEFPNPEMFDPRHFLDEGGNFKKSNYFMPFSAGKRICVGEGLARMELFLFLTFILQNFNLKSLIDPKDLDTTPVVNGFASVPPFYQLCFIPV
Chain of Cytochrome P450 2D6 (P10635 whole entry): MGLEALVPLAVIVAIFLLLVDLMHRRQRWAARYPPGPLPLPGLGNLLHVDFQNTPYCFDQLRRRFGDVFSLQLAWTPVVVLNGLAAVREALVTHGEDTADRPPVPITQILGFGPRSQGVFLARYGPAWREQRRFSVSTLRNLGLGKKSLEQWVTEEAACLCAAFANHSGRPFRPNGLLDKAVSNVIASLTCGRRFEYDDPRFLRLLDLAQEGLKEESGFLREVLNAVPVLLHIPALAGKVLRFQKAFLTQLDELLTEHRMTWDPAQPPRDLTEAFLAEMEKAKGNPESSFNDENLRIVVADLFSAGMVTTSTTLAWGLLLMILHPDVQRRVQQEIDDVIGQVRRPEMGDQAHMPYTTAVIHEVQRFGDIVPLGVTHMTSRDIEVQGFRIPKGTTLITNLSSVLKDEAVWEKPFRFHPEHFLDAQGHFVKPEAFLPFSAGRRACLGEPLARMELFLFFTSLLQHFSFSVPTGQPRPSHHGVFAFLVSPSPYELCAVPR
Chain of Sphingosine 1-phosphate receptor 1 (P21453 whole entry): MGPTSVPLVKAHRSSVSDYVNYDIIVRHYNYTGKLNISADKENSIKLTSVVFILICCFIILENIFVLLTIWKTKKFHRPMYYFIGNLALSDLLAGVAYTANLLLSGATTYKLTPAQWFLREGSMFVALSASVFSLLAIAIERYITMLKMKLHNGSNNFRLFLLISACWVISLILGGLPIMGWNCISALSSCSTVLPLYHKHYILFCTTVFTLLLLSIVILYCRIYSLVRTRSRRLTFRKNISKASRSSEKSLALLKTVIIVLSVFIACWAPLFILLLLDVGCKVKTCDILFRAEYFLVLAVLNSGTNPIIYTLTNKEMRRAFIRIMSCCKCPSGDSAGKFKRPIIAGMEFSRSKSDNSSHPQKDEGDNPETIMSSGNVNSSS
Chain of Cytochrome P450 2C9 (P11712 whole entry): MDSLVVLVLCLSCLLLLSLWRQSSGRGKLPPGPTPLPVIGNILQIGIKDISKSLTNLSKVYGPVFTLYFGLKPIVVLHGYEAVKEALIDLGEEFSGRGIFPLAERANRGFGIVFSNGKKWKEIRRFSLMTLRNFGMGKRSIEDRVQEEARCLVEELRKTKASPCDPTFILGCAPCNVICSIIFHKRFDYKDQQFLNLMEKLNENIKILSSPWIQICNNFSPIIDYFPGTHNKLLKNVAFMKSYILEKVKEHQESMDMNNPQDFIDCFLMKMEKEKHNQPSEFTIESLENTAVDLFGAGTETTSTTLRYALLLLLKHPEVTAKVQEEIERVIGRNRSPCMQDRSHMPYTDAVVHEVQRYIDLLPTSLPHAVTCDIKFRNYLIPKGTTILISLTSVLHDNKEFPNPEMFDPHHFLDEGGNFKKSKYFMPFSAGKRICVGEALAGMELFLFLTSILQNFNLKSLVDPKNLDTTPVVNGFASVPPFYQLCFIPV
Chain of Sphingosine 1-phosphate receptor 3 (Q99500 whole entry): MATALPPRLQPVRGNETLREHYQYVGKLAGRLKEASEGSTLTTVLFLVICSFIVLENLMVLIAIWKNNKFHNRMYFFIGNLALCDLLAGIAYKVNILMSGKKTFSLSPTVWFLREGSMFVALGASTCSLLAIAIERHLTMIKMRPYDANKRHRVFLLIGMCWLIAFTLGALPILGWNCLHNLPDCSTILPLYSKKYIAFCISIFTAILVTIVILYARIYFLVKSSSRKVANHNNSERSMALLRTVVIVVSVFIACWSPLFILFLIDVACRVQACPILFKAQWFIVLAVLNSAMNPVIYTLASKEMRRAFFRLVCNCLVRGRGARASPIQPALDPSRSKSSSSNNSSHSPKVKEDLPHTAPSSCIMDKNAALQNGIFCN
Chain of Albumin (P02768 whole entry): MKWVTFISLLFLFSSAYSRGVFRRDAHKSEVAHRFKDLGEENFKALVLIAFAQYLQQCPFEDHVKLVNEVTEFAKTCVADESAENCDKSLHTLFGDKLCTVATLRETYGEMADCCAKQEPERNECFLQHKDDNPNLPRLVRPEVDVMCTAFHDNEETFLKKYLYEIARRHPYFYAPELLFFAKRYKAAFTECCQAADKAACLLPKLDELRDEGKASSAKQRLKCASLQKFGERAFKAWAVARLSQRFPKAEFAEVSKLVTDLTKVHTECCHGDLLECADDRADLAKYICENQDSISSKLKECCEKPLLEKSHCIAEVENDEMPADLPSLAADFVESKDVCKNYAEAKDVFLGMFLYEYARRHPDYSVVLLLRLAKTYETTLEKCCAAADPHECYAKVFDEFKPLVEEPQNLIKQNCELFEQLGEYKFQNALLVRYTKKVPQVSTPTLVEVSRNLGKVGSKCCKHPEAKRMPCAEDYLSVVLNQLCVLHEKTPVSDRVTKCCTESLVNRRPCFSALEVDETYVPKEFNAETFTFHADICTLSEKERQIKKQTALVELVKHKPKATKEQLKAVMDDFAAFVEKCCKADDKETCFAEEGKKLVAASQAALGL

| Compound | bioavailability [3] [%] | EC50 [5] [µM] | clearance [6] [L/h/kg] | half-life [10] [h] | EC50 [11] [µM] | Vd [13] [L/kg] | IC50 [17] [µM] | IC50 [18] [µM] | CLH [20] [mL/min/g] | IC50 [21] [µM] | CLH [24] [mL/min/g] | IC50 [25] [µM] | IC50 [26] [µM] | IC50 [27] [µM] | Vd [29] [L/kg] | bioavailability [31] [%] | IC50 [32] [µM] | pKa [33] | also measured |
| --- | --- | --- | --- | --- | --- | --- | --- | --- | --- | --- | --- | --- | --- | --- | --- | --- | --- | --- | --- |
| CC(C)Oc1ccc(-c2nc(-c3cccc4c3CCNC4CC(=O)O)no2)cc1Cl (stereo unspecified) | 10 | 5.01 | 0.3 | 6.7 | 0.02 | 2.7 |  |  |  |  |  |  |  |  |  |  |  |  | chromatographic logD [1]: 1.47; Activity [2]: 12; Activity [4]: 58; chromatographic logD [7]: 1.73; Activity [8]: 99; Activity [9]: 24; chromatographic logD [12]: 2.02 |
| CC(C)Oc1ccc(-c2nc(-c3ccc4c(c3)CCNCC4)no2)cc1Cl |  | > 31.6 |  |  | 0.158 |  |  |  |  |  |  |  |  |  |  |  |  |  | bioavailability [14]: 59%; Vdss [15]: 7.6 L/kg; half-life [16]: 9.5 h |
| CC(C)Oc1ncc(-c2nc(-c3cccc4c3OCCNC4CCCC(=O)O)no2)cc1Cl (stereo in doubt; 31b) | 78 | 10 | 0.0426 | 6.6 | 0.0501 | 0.4 | > 50 | > 50 | < 0.9 | > 50 | 1.7 | > 50 | > 50 | 0.099 | 0.9 | 67 | > 50 | 8.09 | fraction unbound [19]: 0.016; fraction unbound [22]: 0.004; t1/2 [23]: 1.8 h; fraction unbound [28]: 0.015; inhibition in vivo at 1 mg/kg [30]: > 80% |
| CC(C)Oc1ccc(-c2nc(-c3cccc4c3CCNC4CC(=O)O)no2)cc1C#N (stereo unspecified) |  | 12.6 |  |  | 0.00501 |  |  |  |  |  |  |  |  |  |  |  |  |  | chromatographic logD [1]: 1.17; Activity [2]: 69; Activity [4]: 108; chromatographic logD [7]: 1.27; Activity [8]: 132; Activity [9]: 46; chromatographic logD [12]: 1.58 |
| CC(C)Oc1ccc(-c2nc(-c3ccc4c(cnn4CCC(=O)O)c3)no2)cc1Cl |  | > 31.6 |  |  | 0.0316 |  |  |  |  |  |  |  |  |  |  |  |  |  | fraction unbound [34]: 0.013 |
| CC(C)Oc1ccc(-c2nc(-c3cccc4c3CCNCC4)no2)cc1C#N |  | 7.94 |  |  | 0.002 |  |  |  |  |  |  |  |  |  |  |  |  |  |  |
| CC(C)Oc1ccc(-c2nc(-c3ccc4c(c3)OCCNC4)no2)cc1Cl |  | > 31.6 |  |  | 0.316 |  |  |  |  |  |  |  |  |  |  |  |  |  |  |
| CC(C)Oc1ccc(-c2nc(-c3ccc4c(c3)CCN(CCCC(=O)O)CC4)no2)cc1C#N | 62 | 7.94 | 0.42 | 2.6 | 0.00794 | 1.5 | > 50 | > 50 | < 0.85 | > 50 | < 1.7 | > 50 | > 50 | 0.015 | 1.6 | 69 | > 50 | 9.15 | half-life [35]: 8 h; solubility at 24 h [36]: 0.1 mg/mL (≈ 217 µM); inhibition [37]: Active; clearance [38]: 0.18 L/h/kg; solubility at 24 h [39]: 0.03 mg/mL (≈ 65.1 µM); Papp [40]: 150 nm/s; solubility [41]: 0.02 mg/mL (≈ 43.4 µM) |
| CC(C)Oc1ccc(-c2nc(-c3cccc4c3OCCN(CCCC(=O)O)C4)no2)cc1Cl | 83 | > 31.6 | 0.42 | 3 | 0.0398 | 1.2 | 27 | 39 | 1 | > 50 | 8.3 | > 50 | > 50 | 0.127 | 1 | 57 | 40 | 7.39 | fraction unbound [19]: 0.02; fraction unbound [22]: 0.012; half-life [35]: 0.4 h; bioavailability [42]: 39%; solubility at 24 h [36]: 0.03 mg/mL (≈ 63.6 µM); Vd [43]: 4 L/kg; fraction unbound [28]: 0.018; clearance [38]: 1.56 L/h/kg; solubility at 24 h [39]: 0.32 mg/mL (≈ 678 µM); half-life [44]: 3.2 h; Papp [40]: 155 nm/s; clearance [45]: 1.8 L/h/kg; solubility [41]: > 1.32 mg/mL |
| O=C(O)c1cnn(Cc2ccc(-c3noc(-c4cc(-c5ccccc5)c(C(F)(F)F)s4)n3)cc2)c1 |  | 1.58 |  |  | 0.251 |  |  |  |  |  |  |  |  |  |  |  |  |  | fraction unbound [34]: 0.01 |
